From US20250195521A1 (Revolution Medicines, Inc., priority 2020, published 2025)
Like-named read-outs stand apart in the source and are kept apart here.

Assays:
[1] = molecular target: KRAS G13C (Homo sapiens (Human), UniProt P01116+P62937, G13C); assay: Ras-Raf disruption/FRET/MOA assay (BRAF RBD, Cyclophilin A); type: biochemical; details: read-out: KRAS G13C FRET IC50
Outline: (§1)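 His6-K-Ras-GMPPNP (12.5 nM), GST-BRAF RBD (50 nM) and tagless Cyclophilin A (25 μM) were combined in 25 mM HEPES pH 7.3 with 100 mM NaCl, 5 mM MgCl2, 0.1% BSA and 0.002% Tween20, with compound as a 10-point 3-fold series from 30 μM final, then incubated 3 h at 25° C.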

[2] = molecular target: KRAS G12V (Homo sapiens (Human), UniProt P01116+P62937, G12V); assay: as above; type: biochemical; details: read-out: KRAS G12V FRET IC50
Outline: as §1

[3] = molecular target: NRAS G12C (Homo sapiens (Human), UniProt P01111+P62937, G12C); assay: as above; type: biochemical; details: read-out: NRAS G12C FRET data IC50
Outline: (§2)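 25 μM tagless Cyclophilin A, 12.5 nM His6-Ras-GMPPNP and 50 nM GST-BRAF RBD in HEPES pH 7.3 buffer with 5 mM MgCl2, with compound (10-point 3-fold series from 30 μM final) for 3 h at 25 °C. Anti-His Eu and anti-GST APC then added for 1.5 h. IC50 from TR-FRET ratio decrease versus DMSO.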

[4] = molecular target: KRAS Q61H (Homo sapiens (Human), UniProt P01116+P62937, Q61H); assay: as above; type: biochemical
Outline: as §1

[5] = molecular target: KRAS G12D (Homo sapiens (Human), UniProt P01116+P62937, G12D); assay: as above; type: biochemical; details: read-out: KRAS G12D FRET IC50
Outline: as §1

[6] = molecular target: KRAS G12S (Homo sapiens (Human), UniProt P01116+P62937, G12S); assay: as above; type: biochemical; details: read-out: KRAS G12S FRET IC50
Outline: as §1

[7] = molecular target: KRAS G12C (Homo sapiens (Human), UniProt P01116+P62937, G12C); assay: as above; type: biochemical; details: read-out: KRAS G12C FRET IC50
Outline: as §1

[8] = molecular target: NRAS Q61R (Homo sapiens (Human), UniProt P01111+P62937, Q61R); assay: as above; type: biochemical
Outline: as §2

[9] = molecular target: NRAS WT (Homo sapiens (Human), UniProt P01111+P62937); assay: as above; type: biochemical
Outline: as §2

[10] = molecular target: KRAS WT (Homo sapiens (Human), UniProt P01116+P62937); assay: as above; type: biochemical; details: read-out: KRAS WT FRET data IC50
Outline: as §1

[11] = molecular target: KRAS G13D (Homo sapiens (Human), UniProt P01116+P62937, G13D); assay: as above; type: biochemical; details: read-out: KRAS G13D FRET data IC50
Outline: as §1

[12] = tested on: NCI-H358 cells (K-Ras G12C); assay: CellTiter-Glo cell viability, NCI-H358; type: cell-based, human; details: Homo sapiens, NCI-H358, 120 h, read-out: H358 Cell Viability IC50
Outline: (§3)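 Cells seeded, compound dispensed straight into wells, 5-day exposure. Plates brought to room temperature ~30 min, CellTiter-Glo luminescence measured. Normalized to DMSO (%), 4-parameter logistic fit.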

[13] = tested on: Capan-1 cells (K-Ras G12V); assay: CellTiter-Glo cell viability, Capan-1; type: cell-based, human; details: Homo sapiens, CAPAN-1, 120 h, read-out: Capan-1 Cell Viability IC50
Outline: as §3

[14] = tested on: K-Ras G12C (NCI-H358 cells); assay: Potency assay: pERK in NCI-H358 cells; type: cell-based, human; details: Homo sapiens, read-out: pERK EC50 (H358 KRAS G12C)
Outline: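 Cells plated the day before were exposed for 4 h at 37° C, 5% CO2 to a 10-point, 3-fold DMSO dilution series (10 mM top stock), in duplicate. Phospho-ERK was read by AlphaLISA SureFire Ultra or by In-Cell Western with DRAQ5 DNA stain, and IC50 came from a 4-parameter sigmoidal fit.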

Sequence of KRAS G13D (P01116 other isoform, or with tags, fused parts or gaps G13D): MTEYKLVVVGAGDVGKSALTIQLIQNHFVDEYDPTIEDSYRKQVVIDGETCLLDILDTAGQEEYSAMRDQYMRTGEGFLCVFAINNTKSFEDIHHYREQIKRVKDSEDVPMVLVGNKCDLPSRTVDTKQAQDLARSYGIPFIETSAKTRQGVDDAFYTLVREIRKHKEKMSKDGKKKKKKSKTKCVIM
Sequence of KRAS G13D (P62937 whole entry): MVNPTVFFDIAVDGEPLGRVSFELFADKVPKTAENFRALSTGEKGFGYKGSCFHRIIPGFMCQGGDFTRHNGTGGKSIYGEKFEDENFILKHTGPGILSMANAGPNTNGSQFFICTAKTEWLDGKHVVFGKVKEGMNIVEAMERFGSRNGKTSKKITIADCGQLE
Sequence of NRAS G12C (P01111 whole entry G12C): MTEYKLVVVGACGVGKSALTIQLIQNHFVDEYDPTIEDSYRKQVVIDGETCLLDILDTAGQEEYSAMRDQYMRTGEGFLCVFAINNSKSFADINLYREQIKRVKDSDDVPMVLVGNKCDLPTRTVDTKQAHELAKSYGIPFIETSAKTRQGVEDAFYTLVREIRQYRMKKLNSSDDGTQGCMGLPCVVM
Sequence of NRAS G12C (P62937 whole entry): as the sequence (P62937 whole entry) above
Sequence of KRAS G12D (P01116 other isoform, or with tags, fused parts or gaps G12D): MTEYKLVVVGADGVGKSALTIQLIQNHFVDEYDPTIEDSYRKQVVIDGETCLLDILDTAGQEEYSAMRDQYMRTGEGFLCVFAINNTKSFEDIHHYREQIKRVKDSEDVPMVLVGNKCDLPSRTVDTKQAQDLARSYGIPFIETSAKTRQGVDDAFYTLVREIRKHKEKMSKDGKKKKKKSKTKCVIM
Sequence of KRAS G12D (P62937 whole entry): as the sequence (P62937 whole entry) above
Sequence of KRAS G12S (P01116 other isoform, or with tags, fused parts or gaps G12S): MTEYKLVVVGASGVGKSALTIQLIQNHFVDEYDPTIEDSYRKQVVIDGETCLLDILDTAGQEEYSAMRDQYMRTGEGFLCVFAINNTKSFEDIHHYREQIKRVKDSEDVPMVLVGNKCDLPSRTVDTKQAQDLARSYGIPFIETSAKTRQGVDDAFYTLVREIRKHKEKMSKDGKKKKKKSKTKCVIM
Sequence of KRAS G12S (P62937 whole entry): as the sequence (P62937 whole entry) above
Sequence of KRAS Q61H (P01116 other isoform, or with tags, fused parts or gaps Q61H): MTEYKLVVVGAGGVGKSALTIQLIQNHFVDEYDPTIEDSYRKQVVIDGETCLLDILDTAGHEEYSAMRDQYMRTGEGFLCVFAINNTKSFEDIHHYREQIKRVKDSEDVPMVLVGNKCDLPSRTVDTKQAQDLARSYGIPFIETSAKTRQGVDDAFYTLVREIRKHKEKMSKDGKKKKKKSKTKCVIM
Sequence of KRAS Q61H (P62937 whole entry): as the sequence (P62937 whole entry) above
Sequence of NRAS WT (P01111 whole entry): as the sequence (P01111 whole entry G12C) above, with C12G counted along it
Sequence of NRAS WT (P62937 whole entry): as the sequence (P62937 whole entry) above
Sequence of KRAS WT (P01116 other isoform, or with tags, fused parts or gaps): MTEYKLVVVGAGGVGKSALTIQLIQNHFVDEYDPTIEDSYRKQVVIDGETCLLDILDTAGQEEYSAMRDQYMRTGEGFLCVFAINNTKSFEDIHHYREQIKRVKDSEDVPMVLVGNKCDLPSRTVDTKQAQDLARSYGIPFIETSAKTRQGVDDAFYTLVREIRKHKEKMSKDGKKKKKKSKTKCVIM
Sequence of KRAS WT (P62937 whole entry): as the sequence (P62937 whole entry) above
Sequence of KRAS G12C (P01116-2 other isoform, or with tags, fused parts or gaps G12C): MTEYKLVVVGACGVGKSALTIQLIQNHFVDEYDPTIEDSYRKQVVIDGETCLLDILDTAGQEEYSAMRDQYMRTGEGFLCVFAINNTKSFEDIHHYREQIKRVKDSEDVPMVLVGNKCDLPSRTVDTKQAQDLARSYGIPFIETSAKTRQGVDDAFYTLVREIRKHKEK
Sequence of KRAS G12C (P62937 whole entry): as the sequence (P62937 whole entry) above
Sequence of KRAS G12V (P01116 other isoform, or with tags, fused parts or gaps G12V): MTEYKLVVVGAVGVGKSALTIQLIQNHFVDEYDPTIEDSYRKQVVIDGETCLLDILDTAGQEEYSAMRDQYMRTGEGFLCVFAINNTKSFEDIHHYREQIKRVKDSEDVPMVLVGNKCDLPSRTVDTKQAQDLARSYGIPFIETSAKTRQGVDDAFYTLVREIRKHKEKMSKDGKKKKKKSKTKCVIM
Sequence of KRAS G12V (P62937 whole entry): as the sequence (P62937 whole entry) above
Sequence of KRAS G13C (P01116 other isoform, or with tags, fused parts or gaps G13C): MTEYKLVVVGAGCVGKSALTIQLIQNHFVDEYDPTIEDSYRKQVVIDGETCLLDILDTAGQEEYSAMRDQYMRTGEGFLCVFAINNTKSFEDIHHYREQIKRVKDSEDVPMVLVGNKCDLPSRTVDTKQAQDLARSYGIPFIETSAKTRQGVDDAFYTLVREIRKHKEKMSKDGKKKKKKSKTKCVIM
Sequence of KRAS G13C (P62937 whole entry): as the sequence (P62937 whole entry) above
Sequence of NRAS Q61R (P01111 whole entry Q61R): as the sequence (P01111 whole entry G12C) above, with C12G, Q61R counted along it
Sequence of NRAS Q61R (P62937 whole entry): as the sequence (P62937 whole entry) above

SMILES	IC50 [1] [nM]	IC50 [2] [nM]	IC50 [3] [nM]	IC50 [4] [nM]	IC50 [5] [nM]	IC50 [6] [nM]	IC50 [7] [nM]	IC50 [8] [nM]	IC50 [9] [nM]	IC50 [10] [nM]	IC50 [11] [nM]	IC50 ([12]; K-Ras G12C, 5-day treatment) [nM]	EC50 ([14]; NCI-H358 cells, 4 hours) [nM]	IC50 ([13]; K-Ras G12V, 5-day treatment) [nM]	IC50 [13] [nM]	EC50 ([14]; NCI-H358, 4 h) [nM]	IC50 [12] [nM]
CCn1c(-c2cccnc2[C@H](C)OC)c2c3cc(ccc31)-c1csc(n1)C[C@H](NC(=O)[C@H](C(C)C)N(C)C(=O)N(C)C1COC1)C(=O)N1CCC[C@H](N1)C(=O)OCC(C)(C)C2 [Compound A334]	100 to 1000	100 to 1000	10 to 100	10 to 100	100 to 1000	100 to 1000	10 to 100	100 to 1000	100 to 1000	100 to 1000	100 to 1000	10 to 100		10 to 100			
CCn1c(-c2cccnc2[C@H](C)OC)c2c3cc(ccc31)-c1csc(n1)C[C@H](NC(=O)[C@H](C(C)C)N(C)C(=O)N1CC(C(=O)O)C1)C(=O)N1CCC[C@H](N1)C(=O)OCC(C)(C)C2 [Compound A344]	100 to 1000	100 to 1000	100 to 1000	100 to 1000	1000 to 10000	100 to 1000	100 to 1000	100 to 1000	100 to 1000	100 to 1000	1000 to 10000		< 5000	> 10000			
CCn1c(-c2cccnc2[C@H](C)OC)c2c3cc(ccc31)-c1csc(n1)C[C@H](NC(=O)[C@H](C(C)C)N(C)C(=O)N1CC(O)C1)C(=O)N1CCC[C@H](N1)C(=O)OCC(C)(C)C2 [Compound A358]	100 to 1000	100 to 1000	10 to 100	10 to 100	100 to 1000	100 to 1000	10 to 100	100 to 1000	100 to 1000	100 to 1000	100 to 1000		< 5000	10 to 100			
CCn1c(-c2cccnc2[C@H](C)OC)c2c3cc(ccc31)-c1csc(n1)C[C@H](NC(=O)[C@H](C(C)C)N(C)C(=O)N1CC[C@H](O)C1)C(=O)N1CCC[C@H](N1)C(=O)OCC(C)(C)C2 [Compound A401]	100 to 1000	100 to 1000	10 to 100	10 to 100	100 to 1000	100 to 1000	10 to 100	100 to 1000	100 to 1000	100 to 1000	100 to 1000	10 to 100		10 to 100			
CCn1c(-c2cccnc2[C@H](C)OC)c2c3cc(ccc31)-c1csc(n1)C[C@H](NC(=O)[C@H](C(C)C)N(C)C(=O)N1CC(S(=O)(=O)N(C)C)C1)C(=O)N1CCC[C@H](N1)C(=O)OCC(C)(C)C2 [Compound A551]	100 to 1000	100 to 1000	10 to 100	10 to 100	100 to 1000	100 to 1000	10 to 100	100 to 1000	100 to 1000	100 to 1000	100 to 1000				10 to 100	< 5000	
CCn1c(-c2cccnc2[C@H](C)OC)c2c3cc(ccc31)-c1csc(n1)C[C@H](NC(=O)[C@H](C(C)C)N(C)C(=O)N1CCC[C@H](N(C)C)C1)C(=O)N1CCC[C@H](N1)C(=O)OCC(C)(C)C2 [Compound A569]	100 to 1000	100 to 1000	10 to 100	10 to 100	100 to 1000	100 to 1000	10 to 100	100 to 1000	10 to 100	100 to 1000	100 to 1000				10 to 100		10 to 100

Second part, led by results:

IC50 [1] [nM]	IC50 [2] [nM]	IC50 [3] [nM]	IC50 [4] [nM]	IC50 [5] [nM]	IC50 [6] [nM]	IC50 [7] [nM]	IC50 [8] [nM]	IC50 [9] [nM]	IC50 [10] [nM]	IC50 [11] [nM]	IC50 ([12]; K-Ras G12C, 5-day treatment) [nM]	EC50 ([14]; NCI-H358 cells, 4 hours) [nM]	SMILES	IC50 ([13]; K-Ras G12V, 5-day treatment) [nM]	IC50 [13] [nM]	EC50 ([14]; NCI-H358, 4 h) [nM]	IC50 [12] [nM]
10 to 100	10 to 100	10 to 100	10 to 100	100 to 1000	10 to 100	10 to 100	100 to 1000	10 to 100	10 to 100	10 to 100	1000 to 10000		CCn1c(-c2cccnc2[C@H](C)OC)c2c3cc(ccc31)-c1cc(O)cc(c1)C[C@H](NC(=O)[C@H](C(C)C)N(C)C(=O)[C@H]1CCC(=O)O1)C(=O)N1CCC[C@H](N1)C(=O)OCC(C)(C)C2 [Compound A405]	1000 to 10000			
100 to 1000	100 to 1000	100 to 1000	10 to 100	100 to 1000	100 to 1000	100 to 1000	100 to 1000	100 to 1000	100 to 1000	100 to 1000	10 to 100		CCn1c(-c2cccnc2[C@H](C)OC)c2c3cc(ccc31)-c1csc(n1)C[C@H](NC(=O)[C@H](C(C)C)N(C)C(=O)N1CC3(CC(N(C)C(C)C)C3)C1)C(=O)N1CCC[C@H](N1)C(=O)OCC(C)(C)C2 [Compound A485]	10 to 100			
100 to 1000	100 to 1000	100 to 1000	100 to 1000	1000 to 10000	100 to 1000	100 to 1000	100 to 1000	100 to 1000	100 to 1000	100 to 1000	10 to 100		CCn1c(-c2cccnc2[C@H](C)OC)c2c3cc(ccc31)-c1csc(n1)C[C@H](NC(=O)[C@H](C(C)C)N(C)C(=O)N1CC3(CC(NCCOC)C3)C1)C(=O)N1CCC[C@H](N1)C(=O)OCC(C)(C)C2 [Compound A512]	10 to 100			
100 to 1000	100 to 1000	10 to 100	10 to 100	100 to 1000	100 to 1000	10 to 100	100 to 1000	100 to 1000	100 to 1000	100 to 1000			CCn1c(-c2cccnc2[C@H](C)OC)c2c3cc(ccc31)-c1csc(n1)C[C@H](NC(=O)[C@H](C(C)C)N(C)C(=O)N1CC([C@@H](CO)OC)C1)C(=O)N1CCC[C@H](N1)C(=O)OCC(C)(C)C2 [Compound A514]	10 to 100			
100 to 1000	100 to 1000	10 to 100	10 to 100	100 to 1000	100 to 1000	10 to 100	100 to 1000	100 to 1000	100 to 1000	100 to 1000		< 5000	CCn1c(-c2cccnc2[C@H](C)OC)c2c3cc(ccc31)-c1csc(n1)C[C@H](NC(=O)[C@H](C(C)C)N(C)C(=O)N1CC([C@H](CO)OC)C1)C(=O)N1CCC[C@H](N1)C(=O)OCC(C)(C)C2 [Compound A515]	10 to 100			
100 to 1000	100 to 1000	10 to 100	10 to 100	100 to 1000	100 to 1000	10 to 100	100 to 1000	100 to 1000	100 to 1000	100 to 1000			CCn1c(-c2cccnc2[C@H](C)OC)c2c3cc(ccc31)-c1csc(n1)C[C@H](NC(=O)[C@H](C(C)C)N(C)C(=O)N1CC(C(=O)N3CCOCC3)C1)C(=O)N1CCC[C@H](N1)C(=O)OCC(C)(C)C2 [Compound A543]	10 to 100			
100 to 1000	100 to 1000	10 to 100	10 to 100	100 to 1000	100 to 1000	10 to 100	100 to 1000	100 to 1000	100 to 1000	100 to 1000	10 to 100		CCn1c(-c2cccnc2[C@H](C)OC)c2c3cc(ccc31)-c1csc(n1)C[C@H](NC(=O)[C@H](C(C)C)N(C)C(=O)N(C)CCc1ccncc1)C(=O)N1CCC[C@H](N1)C(=O)OCC(C)(C)C2 [Compound A557]	100 to 1000			
